According to US6737383B1, “Herbicidal oxadiazolidines” (priority 1999, dated 2004):

Legend:
[1] = system: bedstraw; test: Test B pre/postemergence bedstraw; assay type: in vivo, Galium aparine; conditions: for Bedstraw plant response rating (0 to 10 scale): 0 is no effect
Summary of the method: (§1)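 Herbicidal effect was estimated by eye on a ten-point control scale after plants spent twelve to sixteen days in a greenhouse following soil or foliar treatment. Foliar sprays targeted plants at one to four leaves; all doses were formulated in a non-phytotoxic solvent with surfactant.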

[2] = system: blackgrass; test: Test B pre/postemergence blackgrass; assay type: in vivo, Alopecurus myosuroides; conditions: for Blackgrass plant response rating (0 to 10 scale): 0 is no effect
Summary of the method: as §1

[3] = system: surinam grass; test: Test B pre/postemergence surinam grass; assay type: in vivo, Brachiaria decumbens; conditions: for B. signalgrass plant response rating (0 to 10 scale): 0 is no effect
Summary of the method: as §1

[4] = system: winter wheat; test: Test E winter wheat; assay type: in vivo, Triticum aestivum; conditions: Postemergence; for Plant response rating, Wheat (winter): 0 to 100 scale
Experimental: […] All plant species were grown using normal greenhouse practices. Crop and weed species include annual bluegrass (Poa annua), blackgrass (Alopecurus myosuroides), black nightshade (Solanum nigra), chickweed (Stellaria media), common poppy (Papaver rhoeas), deadnettle (Lamium amplexicaule), downy brome (Bromus tectorum), field violet (Viola arvensis), galium (Galium aparine), green foxtail (Setaria viridis), Italian ryegrass (Lolium multiflorum), jointed goatgrass (Aegilops cylindrica), kochia (Kochia scoparia), lambsquarters (Chenopodium album), littleseed canarygrass (Phalaris minor), rape (Brassica napus), redroot pigweed (Amaranthus retroflexus), Russian thistle (Salsola kali), scentless chamomile (Matricaria inodora), spring barley (Hordeum vulgare), sugar beet (Beta vulgaris), sunflower (Helianthus annuus), ivyleaf speedwell (Veronica hederaefolia), spring wheat (Triticum aestivum), winter wheat (Triticum aestivum), wild buckwheat (Polygonum convolvulus), wild mustard (Sinapis arvensis), wild oat (Avena fatua), windgrass (Apera spica-venti) and winter barley (Hordeum vulgare).
Treated plants and untreated controls were maintained in a greenhouse for approximately 21 to 28 days, after which all treated plants were compared to untreated controls and visually evaluated. […] A dash response (-) means no test result.

[5] = system: blackgrass; test: Test E blackgrass; assay type: in vivo, Alopecurus myosuroides; conditions: Preemergence; for Blackgrass plant response rating (0 to 100 scale): Rate 250 g/ha; for Plant response rating, Blackgrass: 0 to 100 scale where 0 is no effect and 100 is complete control
[6] = system: green foxtail; test: Test E green foxtail; assay type: in vivo, Setaria viridis; conditions: Preemergence; for Green foxtail plant response rating (0 to 100 scale): Rate 250 g/ha; for Plant response rating, Green foxtail: 0 to 100 scale where 0 is no effect and 100 is complete control
[7] = system: Italian ryegrass; test: Test E Italian ryegrass; assay type: in vivo, Lolium multiflorum; conditions: Preemergence; for I. Ryegrass plant response rating (0 to 100 scale): Rate 250 g/ha; for Plant response rating, I. Ryegrass: 0 to 100 scale where 0 is no effect and 100 is complete control
[8] = system: winter wheat; test: Test E winter wheat; assay type: in vivo, Triticum aestivum; conditions: Preemergence; for Wheat (winter) plant response rating (0 to 100 scale): Rate 250 g/ha; for Plant response rating, Wheat (winter): 0 to 100 scale where 0 is no effect and 100 is complete control
[9] = system: wild oat; test: Test E wild oat; assay type: in vivo, Avena fatua; conditions: Preemergence; for Wild oat plant response rating (0 to 100 scale): Rate 250 g/ha; for Plant response rating, Wild oat: 0 to 100 scale where 0 is no effect and 100 is complete control
[10] = system: winter barley; test: Test E winter barley; assay type: in vivo, Hordeum vulgare; conditions: Preemergence; for Barley (winter) plant response rating (0 to 100 scale): Rate 250 g/ha; for Plant response rating, Barley (winter): 0 to 100 scale where 0 is no effect and 100 is complete control
[11] = Postemergence, Rate 125 g/ha, scale of 0 to 10 where 0 is no effect and 10 is complete control
[12] = Preemergence, Rate 62 g/ha, scale of 0 to 10 where 0 is no effect and 10 is complete control
[13] = Preemergence, Rate 125 g/ha, 10 is complete control
[14] = Preemergence, Rate 250 g/ha, scale 0 to 10, 0 is no effect, 10 is complete control
[15] = Preemergence, Rate 500 g/ha, scale 0 to 10 (0 no effect, 10 complete control)
[16] = Rate 62 g/ha, Postemergence, scale of 0 to 10 where 0 is no effect and 10 is complete control
[17] = Rate 250 g/ha, Postemergence, scale 0 to 10, 0 is no effect, 10 is complete control
[18] = Rate 500 g/ha, Postemergence, scale 0 to 10
[19] = Rate 500 g/ha, Postemergence, scale 0 to 10, 0 no effect, 10 complete control
[20] = Rate 1000 g/ha, 0 is no effect and 100 is complete control

CC1CCCCC1n1c(=O)on(C(=O)N(c2ccc(F)cc2F)C(C)C)c1=O (stereo not drawn) [Compound 172]
Bedstraw plant response rating [1, 11]: 0 | Bedstraw plant response rating [1, 12]: 0 | Bedstraw plant response rating (0 to 10 scale) [1, 13]: 0 | Bedstraw plant response rating [1, 14]: 3 | Bedstraw plant response rating [1, 15]: 5 | Bedstraw plant response rating [1, 16]: 0 | Plant response rating, Bedstraw [1, 17]: 8 | Blackgrass plant response rating [2, 11]: 0 | Blackgrass plant response rating [2, 12]: 0 | Blackgrass plant response rating (0 to 10 scale) [2, 13]: 0 | Blackgrass plant response rating [2, 14]: 3 | Blackgrass plant response rating [2, 15]: 3 | Blackgrass plant response rating [2, 16]: 0 | Plant response rating, Blackgrass [2, 17]: 5 | Blackgrass plant response rating [2, 18]: 5 | B. signalgrass plant response rating [3, 11]: 0 | B. signalgrass plant response rating [3, 12]: 2 | B. signalgrass plant response rating (0 to 10 scale) [3, 13]: 5 | B. signalgrass plant response rating [3, 14]: 5 | B. signalgrass plant response rating [3, 15]: 8 | B. signalgrass plant response rating [3, 16]: 0 | Plant response rating, B. signalgrass [3, 17]: 0 | B. signalgrass plant response rating [3, 19]: 0 | Plant response rating, Wheat (winter) [4, 20]: 50 | Plant response rating, Wheat (winter) ([4]; Rate 500 g/ha, 0 is no effect, 100 is complete control): 40 | Blackgrass plant response rating (0 to 100 scale) [5]: 50 | Plant response rating, Blackgrass ([5]; Rate 500 g/ha): 60 | Plant response rating, Blackgrass ([5]; Rate 1000 g/ha): 80 | Green foxtail plant response rating (0 to 100 scale) [6]: 60 | Plant response rating, Green foxtail ([6]; Rate 500 g/ha): 85 | Plant response rating, Green foxtail ([6]; Rate 1000 g/ha): 100 | I. Ryegrass plant response rating (0 to 100 scale) [7]: 30 | Plant response rating, I. Ryegrass ([7]; Rate 500 g/ha): 65 | Plant response rating, I. Ryegrass ([7]; Rate 1000 g/ha): 80 | Wheat (winter) plant response rating (0 to 100 scale) [8]: 10 | Plant response rating, Wheat (winter) ([8]; Rate 500 g/ha): 20 | Plant response rating, Wheat (winter) ([8]; Rate 1000 g/ha): 30 | Wild oat plant response rating (0 to 100 scale) [9]: 30 | Plant response rating, Wild oat ([9]; Rate 500 g/ha): 40 | Plant response rating, Wild oat ([9]; Rate 1000 g/ha): 50 | Barley (winter) plant response rating (0 to 100 scale) [10]: 40 | Plant response rating, Barley (winter) ([10]; Rate 500 g/ha): 40 | Plant response rating, Barley (winter) ([10]; Rate 1000 g/ha): 20

CC(C)N(C(=O)n1oc(=O)n(CC(F)(F)F)c1=O)c1ccc(F)cc1 [Compound 163]
Bedstraw plant response rating [1, 11]: 4 | Bedstraw plant response rating [1, 12]: 0 | Bedstraw plant response rating (0 to 10 scale) [1, 13]: 0 | Bedstraw plant response rating [1, 14]: 4 | Bedstraw plant response rating [1, 15]: 4 | Bedstraw plant response rating [1, 16]: 0 | Plant response rating, Bedstraw [1, 17]: 7 | Bedstraw plant response rating [1, 18]: 9 | Blackgrass plant response rating [2, 11]: 4 | Blackgrass plant response rating [2, 12]: 7 | Blackgrass plant response rating (0 to 10 scale) [2, 13]: 7 | Blackgrass plant response rating [2, 14]: 10 | Blackgrass plant response rating [2, 15]: 10 | Blackgrass plant response rating [2, 16]: 2 | Plant response rating, Blackgrass [2, 17]: 6 | Blackgrass plant response rating [2, 18]: 8 | B. signalgrass plant response rating [3, 11]: 2 | B. signalgrass plant response rating [3, 12]: 0 | B. signalgrass plant response rating (0 to 10 scale) [3, 13]: 2 | B. signalgrass plant response rating [3, 14]: 2 | B. signalgrass plant response rating [3, 15]: 2 | B. signalgrass plant response rating [3, 16]: 0 | Plant response rating, B. signalgrass [3, 17]: 5 | B. signalgrass plant response rating [3, 19]: 6 | Plant response rating, Wheat (winter) [4, 20]: 70 | Plant response rating, Wheat (winter) ([4]; Rate 500 g/ha, 0 no effect, 100 complete control): 50 | Wheat (winter) plant response rating ([4]; Rate 250 g/ha, 0 to 100 scale where 0 is no effect and 100 is complete control): 40 | Blackgrass plant response rating (0 to 100 scale) [5]: 30 | Plant response rating, Blackgrass ([5]; Rate 500 g/ha): 40 | Plant response rating, Blackgrass ([5]; Rate 1000 g/ha): 50 | Green foxtail plant response rating (0 to 100 scale) [6]: 100 | Plant response rating, Green foxtail ([6]; Rate 500 g/ha): 100 | Plant response rating, Green foxtail ([6]; Rate 1000 g/ha): 100 | I. Ryegrass plant response rating (0 to 100 scale) [7]: 30 | Plant response rating, I. Ryegrass ([7]; Rate 500 g/ha): 50 | Plant response rating, I. Ryegrass ([7]; Rate 1000 g/ha): 60 | Wheat (winter) plant response rating (0 to 100 scale) [8]: 30 | Plant response rating, Wheat (winter) ([8]; Rate 1000 g/ha): 55 | Wild oat plant response rating (0 to 100 scale) [9]: 50 | Plant response rating, Wild oat ([9]; Rate 500 g/ha): 60 | Plant response rating, Wild oat ([9]; Rate 1000 g/ha): 70 | Barley (winter) plant response rating (0 to 100 scale) [10]: 30 | Plant response rating, Barley (winter) ([10]; Rate 500 g/ha): 40 | Plant response rating, Barley (winter) ([10]; Rate 1000 g/ha): 50
